{"source": "patent US10945998B2", "about": "“Inhibitors of short-chain dehydrogenase activity for treating fibrosis” (CASE WESTERN RESERVE UNIVERSITY, priority 2015, dated 2021)", "key": {"[1]": {"tested_on": "mouse model of intestinal fibrosis", "assay": "DSS chronic colitis mouse model of intestinal fibrosis", "format": "in vivo, FVB/N mice", "details": "5 mg/kg IP twice a day for 28 days from day 41, colons day 69, vs vehicle", "protocol": "To establish a model of intestinal fibrosis due to chronic colitis, 8-week male FVB/N mice were subjected to three cycles of dextran sodium sulfate (DSS; 2% w/v) in sterile drinking water. Each cycle consisted of 7 days of DSS followed by 10 days of recovery without DSS. […] On day 69, colons were harvested from mice, longitudinally open, and embedded in agar for orientation, and fixed in formalin overnight. Slides were prepared from paraffin-embedded formalin-fixed samples according to standard procedures. The degree of fibrosis in the mouse colon in the two groups were compared by Masson's Trichrome staining. The intensity of positive trichrome staining was quantified using ImageJ software in the following manner. 10 evenly spaced images were captured at 20× from each third of the colon from each mouse. (FIGS. 7(A-D)) Significant lymphovascular compartments or extracolonic connective tissue attachments seen on slides were excluded during the image capture. RGB channels were split from the images, and the blue channel from each image was divided by the red channel. After generating an intensity histogram of all pixels in the resultant image, the area under the curve (AUC) was calculated for intensities above 1.3 (blue/red) cutoff. The sum of AUC (total trichrome intensity) was normalized by the colon length."}, "[2]": {"tested_on": "mouse model of idiopathic pulmonary fibrosis", "assay": "bleomycin mouse model of idiopathic pulmonary fibrosis", "format": "in vivo, C57/BL6J mice", "details": "vs vehicle", "protocol": "8 week old female C57/BL6J mice were purchased from Jackson Labs (stock #000664). All mouse studies were approved by the institutional animal care and use committee at Case Western Reserve University.\nTo induce disease onset, mice were anesthetized with ketamine/xylazine and the trachea exposed by cervical […]. Bleomycin sulfate (Enzo-BML-AP302-0010) was dissolved in H2O and administered intratracheally as a single dose of 2 mg/kg in 50 μl solution per animal.\nMortality was observed daily over the duration of the study. Body weights were measured prior to instillation and twice weekly post-bleomycin instillation.\nHydroxyproline was used to measure collagen content in mouse lungs (Sigma-MAK008-1KT). Briefly, mice were sacrificed and the right lung dissected for collagen quantitation. Experiments were performed according to the manufacturer's protocol. […] The hydrolyzed samples were incubated with 4-(Dimethylamino) benzaldehyde (DMAB) for 90 min at 60° C., and the absorbance of oxidized hydroxyproline was measured at 560 nm."}, "[3]": {"assay": "chemical stability when incubated with hepatocyte cell lines", "format": "in vitro ADME"}, "[4]": {"tested_on": "mice", "assay": "toxicity after IP injection into mice"}, "[5]": {"tested_on": "PGE2 production by cell lines", "assay": "PGE2 production by cell lines", "format": "cell-based"}, "[6]": {"assay": "chemical stability in aqueous solutions", "format": "physicochemical", "details": "over broad pH range"}, "[7]": {"assay": "chemical stability when incubated with hepatocyte extracts", "format": "in vitro ADME"}, "[8]": {"assay": "plasma half-life after IP injection into mice", "format": "in vivo", "details": "mouse, injected IP into mice"}, "[9]": {"assay": "chemical stability when incubated with mouse liver extracts", "format": "in vitro ADME"}, "[10]": {"assay": "chemical stability when incubated with human liver extracts", "format": "in vitro ADME"}, "[11]": {"assay": "chemical stability when incubated with rat liver extracts", "format": "in vitro ADME"}, "[12]": {"target": "T1, recombinant 15-PGDH (Homo sapiens, UniProt P15428)", "T1 sequence (P15428 1-266)": "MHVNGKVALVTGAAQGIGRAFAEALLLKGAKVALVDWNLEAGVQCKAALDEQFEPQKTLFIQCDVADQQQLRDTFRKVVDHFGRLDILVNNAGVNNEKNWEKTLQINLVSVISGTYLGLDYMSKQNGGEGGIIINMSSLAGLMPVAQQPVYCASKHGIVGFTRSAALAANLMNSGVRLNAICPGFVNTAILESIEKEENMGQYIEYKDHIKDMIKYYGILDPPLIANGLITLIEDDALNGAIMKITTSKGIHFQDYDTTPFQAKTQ", "assay": "inhibition of recombinant 15-PGDH", "format": "biochemical"}, "[13]": {"details": "5.0 mg/kg IP 2× daily for 35 days after bleomycin"}}, "data": [{"compound": "CCCC[S+]([O-])c1sc2nc(-c3cccs3)cc(-c3ccccc3)c2c1N", "note": "(single isomer, unassigned; (+)) [(+)SW033291]", "values": [{"measurement": "colonic fibrosis (Masson's Trichrome staining intensity normalized by colon length)", "setting": "[1]", "value": "substantially reduced"}]}, {"compound": "CCCC[S+]([O-])c1sc2nc(-c3cccs3)cc(-c3ccccc3)c2c1N", "note": "(stereo not drawn) [SW033291, 2-(butylsulfinyl)-4-phenyl-6-(thiophen-2-yl)thieno[2,3-b]pyridin-3-amine]", "values": [{"measurement": "survival", "setting": "[2]; [13]", "value": "improved survival"}, {"measurement": "weight change", "setting": "[2]; [13]", "value": "enhanced maintenance of weight"}, {"measurement": "collagen deposition (tissue hydroxyproline content)", "setting": "[2]; lung, 5.0 mg/kg IP 2× daily after bleomycin", "value": "reduced collagen deposition"}]}, {"compound": "CCCC[S+]([O-])c1sc2nc(-c3cccs3)cc(-c3ccccc3)c2c1N", "note": "(stereo not drawn) [formula (IX)]", "values": [{"measurement": "chemical stability with hepatocyte cell lines", "setting": "[3]", "value": "chemically stable"}, {"measurement": "toxicity", "setting": "[4]; injected IP into mice at 0.3 μmole/per mouse twice daily for 21 days", "value": "no toxicity"}, {"measurement": "immediate toxicity over 24 hours", "setting": "[4]; injected IP into mice at 0.6 μmole/per mouse", "value": "no immediate toxicity"}, {"measurement": "immediate toxicity over 24 hours", "setting": "[4]; injected IP into mice at 1.2 μmole/per mouse", "value": "no immediate toxicity"}, {"measurement": "PGE2 production by cell lines", "setting": "[5]", "value": "increase PGE2 production"}, {"measurement": "chemical stability in aqueous solutions", "setting": "[6]", "value": "chemically stable"}, {"measurement": "chemical stability with hepatocyte extracts", "setting": "[7]", "value": "chemically stable"}, {"measurement": "half-life", "setting": "[8]", "value": 4.22, "unit": "h"}]}, {"compound": "CCCC[S+]([O-])c1sc2nc(-c3nccs3)cc(-c3cnc(C)n3C)c2c1N", "note": "(stereo not drawn) [formula (X)]", "values": [{"measurement": "concentration at which PGE2 production by cell lines is increased", "setting": "[5]", "value": 20, "unit": "nM"}, {"measurement": "chemical stability with liver extracts", "setting": "[9]", "value": "chemically stable"}, {"measurement": "chemical stability with liver extracts", "setting": "[10]", "value": "chemically stable"}, {"measurement": "chemical stability with liver extracts", "setting": "[11]", "value": "chemically stable"}, {"measurement": "half-life", "setting": "[8]", "value": 0.55, "unit": "h"}, {"measurement": "concentration at which recombinant 15-PGDH is inhibited", "setting": "[12]", "value": 3, "unit": "nM"}]}]}
